Measurements as given in article PMC6384738, “Structure-Function Studies of Polymyxin B Lipononapeptides” (Molecules, 2019).
In brackets after ≈: the same amount, converted by molar mass. Where a SMILES comes first, the peptide text is derived from it. Bridges are numbered along the chain shown (N, C = ends). [ ]: non-standard residue; d: D form. The star is where a group is joined. Isonicotinoyl(2-Ph) = O=C(c1ccnc(-c2ccccc2)c1)*; Benzoyl(3-Ph) = O=C(c1cccc(-c2ccccc2)c1)*; Benzoyl(4-hexyl) = CCCCCCc1ccc(C(=O)*)cc1; Hexanoyl(6-Ph) = O=C(CCCCCc1ccccc1)*; X2 = CCCCCOc1cccc(C(=O)*)c1; Octanoyl = CCCCCCCC(=O)*; Dab = NCC[C@H](N)C(=O)O

Key:
E. coli ATCC 25922 = assay: microbe, parasite or virus in culture; conditions: ATCC 25922, 18 h
Experimental: (§1) All compounds synthesised in this study were assessed for their minimum inhibitory concentrations (MIC, mg/L) by broth microdilution assay against five antibiotic-sensitive and resistant ATCC reference strains covering the Gram-negative ESKAPE pathogens (Escherichia coli, Klebsiella pneumoniae, A. baumannii, and P. aeruginosa) (Table 1, Table 2 and Table 3). Staphylococcus aureus was also included as a representative Gram-positive bacterial strain. […] Polymyxin B 1, colistin 2, vancomycin and gentamicin were used as positive inhibitor comparator compounds. Compounds were counter-screened against human proximal tubular epithelial cells (HK-2), using LDH release as a general indicator of cellular toxicity.

P. aeruginosa ATTC 27853 = assay: microbe, parasite or virus in culture; conditions: ATTC 27853, 18 h
Experimental: as §1

[1] = tested on: K. pneumoniae ATCC 700603; assay: microbe, parasite or virus in culture; conditions: ATCC 700603, 18 h
Experimental: as §1

K. pneumoniae BAA 2146 = assay: microbe, parasite or virus in culture; conditions: BAA 2146, 18 h
Experimental: as §1

K. pneumoniae ATCC 13833 = assay: microbe, parasite or virus in culture; conditions: ATCC 13833, 18 h
Experimental: as §1

A. baumannii ATCC 19606 = assay: microbe, parasite or virus in culture; conditions: ATCC 19606, 18 h
Experimental: as §1

S. aureus ATCC 25923 = assay: microbe, parasite or virus in culture; conditions: ATCC 25923, 18 h
Experimental: as §1

in vitro = conditions: human
Experimental: as §1
Cytotoxicity to human kidney proximal tubular epithelial cell line, HK-2 (ATCC CRL-2190, sourced from ATCC; Manassas, VA, USA) was determined using the LDH assay as previously described. In brief, HK-2 cells were seeded as 2000 cells/well in black-walled clear bottom 384-well tissue culture treated plates (Corning, catalogue No. 3712) in DMEM/F12 medium (Gibco® 10565-042) containing 10% of Fetal Bovine Serum (FBS, Gibco® 10099-141) and incubated for 24 h at 37 °C, 5% CO2. Compounds were then added into each well with a concentration series from 300 µM to 2.3 µM in 2-fold dilutions. Colistin and polymyxin B were used as controls and tested at a final concentration range of 1 mM to 7.8 µM. The cells were incubated with the compounds for 24 h at 37 °C, 5% CO2. After the incubation, 5 µL of culture medium was added to 45 µL of LDH assay buffer (Biovision, K313-500) and incubated for 30 min at room temperature. The absorbance (ABS) was then read at 450 nm using a Polar Star Omega plate reader. The data was analysed by Prism 6 software (GraphPad Software, La Jolla, CA, USA). Results were calculated using the following equation: cytotoxicity %= (ABSsamples − ABSuntreated/ABS1%Triton X-100 − ABSuntreated) × 100.

| MIC E. coli ATCC 25922 (E. coli ATCC 25922) [µg/mL] | MIC P. aeruginosa ATTC 27853 (P. aeruginosa ATTC 27853) [µg/mL] | MIC K. pneumoniae ATCC 700603 [1] [µg/mL] | MIC K. pneumoniae BAA 2146 (K. pneumoniae BAA 2146) [µg/mL] | MIC K. pneumoniae ATCC 13833 (K. pneumoniae ATCC 13833) [µg/mL] | MIC A. baumannii ATCC 19606 (A. baumannii ATCC 19606) [µg/mL] | MIC S. aureus ATCC 25923 (S. aureus ATCC 25923) [µg/mL] | SMILES | CC50 at 24 h (in vitro) [µM] |
| --- | --- | --- | --- | --- | --- | --- | --- | --- |
| >32 | 32 (≈ 29.4 µM) | >32 | >32 | >32 | >32 | >32 | CCCCCCCC(=O)N[C@@H](CCN)C(=O)N[C@H](C(=O)N[C@H]1CCNC(=O)[C@H]([C@@H](C)O)NC(=O)[C@H](CCN)NC(=O)[C@H](CCN)NC(=O)[C@H](CC(C)C)NC(=O)[C@@H](Cc2ccccc2)NC(=O)[C@H](CCN)NC1=O)[C@@H](C)O [Compound 9] (Octanoyl-[Dab]T[Dab][Dab][dF]L[Dab][Dab]T; lactam 3-C) | 79 |
| 4 (≈ 3.5 µM) | 1 (≈ 0.874 µM) | 16 (≈ 14 µM) | 16 (≈ 14 µM) | >32 | >32 | >32 | CC(C)C[C@@H]1NC(=O)[C@@H](Cc2ccccc2)NC(=O)[C@H](CCN)NC(=O)[C@@H](NC(=O)[C@H](CCN)NC(=O)[C@@H](NC(=O)c2ccnc(-c3ccccc3)c2)[C@@H](C)O)CCNC(=O)[C@H]([C@@H](C)O)NC(=O)[C@H](CCN)NC(=O)[C@H](CCN)NC1=O [Compound 10] ({Isonicotinoyl(2-Ph)}-T[Dab][Dab][Dab][dF]L[Dab][Dab]T; lactam 3-C) | > 300 |
| 8 (≈ 6.94 µM) | 2 (≈ 1.73 µM) | 32 (≈ 27.7 µM) | 8 (≈ 6.94 µM) | >32 | >32 | >32 | CCCCCOc1cccc(C(=O)N[C@H](C(=O)N[C@@H](CCN)C(=O)N[C@H]2CCNC(=O)[C@H]([C@@H](C)O)NC(=O)[C@H](CCN)NC(=O)[C@H](CCN)NC(=O)[C@H](CC(C)C)NC(=O)[C@@H](Cc3ccccc3)NC(=O)[C@H](CCN)NC2=O)[C@@H](C)O)c1 [Compound 11] (X2-T[Dab][Dab][Dab][dF]L[Dab][Dab]T; lactam 3-C) | 93 |
| 2 (≈ 1.74 µM) | 1 (≈ 0.868 µM) | 4 (≈ 3.47 µM) | 2 (≈ 1.74 µM) | 16 (≈ 13.9 µM) | 32 (≈ 27.8 µM) | 8 (≈ 6.95 µM) | CCCCCCc1ccc(C(=O)N[C@H](C(=O)N[C@@H](CCN)C(=O)N[C@H]2CCNC(=O)[C@H]([C@@H](C)O)NC(=O)[C@H](CCN)NC(=O)[C@H](CCN)NC(=O)[C@H](CC(C)C)NC(=O)[C@@H](Cc3ccccc3)NC(=O)[C@H](CCN)NC2=O)[C@@H](C)O)cc1 [Compound 12] ({Benzoyl(4-hexyl)}-T[Dab][Dab][Dab][dF]L[Dab][Dab]T; lactam 3-C) | 46 |
| 1 (≈ 0.879 µM) | 1 (≈ 0.879 µM) | 2 (≈ 1.76 µM) | 1 (≈ 0.879 µM) | 8 (≈ 7.03 µM) | 8 (≈ 7.03 µM) | >32 | CC(C)C[C@@H]1NC(=O)[C@@H](Cc2ccccc2)NC(=O)[C@H](CCN)NC(=O)[C@@H](NC(=O)[C@H](CCN)NC(=O)[C@@H](NC(=O)CCCCCc2ccccc2)[C@@H](C)O)CCNC(=O)[C@H]([C@@H](C)O)NC(=O)[C@H](CCN)NC(=O)[C@H](CCN)NC1=O [Compound 13] ({Hexanoyl(6-Ph)}-T[Dab][Dab][Dab][dF]L[Dab][Dab]T; lactam 3-C) | 189 |
| 8 (≈ 7 µM) | 2 (≈ 1.75 µM) | 32 (≈ 28 µM) | 16 (≈ 14 µM) | >32 | >32 | >32 | CC(C)C[C@@H]1NC(=O)[C@@H](Cc2ccccc2)NC(=O)[C@H](CCN)NC(=O)[C@@H](NC(=O)[C@H](CCN)NC(=O)[C@@H](NC(=O)c2cccc(-c3ccccc3)c2)[C@@H](C)O)CCNC(=O)[C@H]([C@@H](C)O)NC(=O)[C@H](CCN)NC(=O)[C@H](CCN)NC1=O [Compound 14] ({Benzoyl(3-Ph)}-T[Dab][Dab][Dab][dF]L[Dab][Dab]T; lactam 3-C) | 182 |
